Reference: patent US20230272464A1, “MODIFIED NUCLEOTIDES AND METHODS FOR DNA AND RNA POLYMERIZATION AND SEQUENCING” (SeNA Research, Incorporated, priority 2019, published 2023)

Experiments:
Assay type in all cases: biochemical
[1] = target: Taq DNA polymerase (Thermus aquaticus, UniProt P19821); experiment: PCR with dNTPαS I: suppression of nonspecific product
Source text: Compared to Bst DNA polymerase, Taq DNA polymerase is used much more widely, such as in polymerase chain reaction (PCR).
To test universality of suppression effect of dNTPαS I on nonspecific product, we checked 5 new pairs of primers (primer pair a, b, c, d, e) and 3 types of templates (plasmid, total human cDNA and human genome) with native dNTPs or S-modified dNTPs (FIG. 13). […] Further, S-dNTP can inhibit nonspecific amplification and increase specific product when amplifying simple plasmid template (FIG. 13B). Furthermore, when amplifying complex template (cDNA or genome), reactions using S-dNTP could exact specific product which can not be synthesized using all native dNTPs (FIG. 13B).

[2] = target: DNA polymerase (Escherichia coli, UniProt P00582); experiment: Misincorporation of 2-Se-TTP: extension with each dNTP except dCTP; conditions: dCTP not present; up to 30 minutes
Chain of DNA polymerase (P00582 324-928): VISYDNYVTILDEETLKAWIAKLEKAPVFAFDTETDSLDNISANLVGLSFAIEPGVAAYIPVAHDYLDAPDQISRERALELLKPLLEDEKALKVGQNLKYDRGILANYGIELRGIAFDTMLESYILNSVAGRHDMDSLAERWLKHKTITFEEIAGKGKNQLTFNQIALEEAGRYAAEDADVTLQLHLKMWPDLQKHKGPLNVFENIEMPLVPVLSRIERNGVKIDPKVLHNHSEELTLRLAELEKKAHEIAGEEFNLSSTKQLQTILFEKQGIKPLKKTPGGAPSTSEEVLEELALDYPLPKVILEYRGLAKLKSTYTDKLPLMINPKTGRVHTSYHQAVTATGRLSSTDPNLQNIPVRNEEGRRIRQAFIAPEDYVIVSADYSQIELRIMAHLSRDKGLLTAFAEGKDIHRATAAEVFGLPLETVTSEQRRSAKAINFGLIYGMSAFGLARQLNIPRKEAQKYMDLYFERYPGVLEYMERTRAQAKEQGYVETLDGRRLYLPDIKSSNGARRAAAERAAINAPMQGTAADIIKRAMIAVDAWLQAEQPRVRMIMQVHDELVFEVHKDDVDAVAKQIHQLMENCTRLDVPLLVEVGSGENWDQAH
Method: Experiments to examine the misincorporation of 2-Se-TTP were conducted as follows. Broadly, enzymatic extension reactions were performed using each naturally occurring dNTP except dCTP, knowing that misincorporations of TTP in place of dCTP are commonly the cause of decreased fidelity in DNA replications.

[3] = target: Klenow fragment of DNA polymerase I (Escherichia coli, UniProt P00582); experiment: Polymerization using TTP or 2-Se-TTP (denatured PAGE)
Chain of Klenow fragment of DNA polymerase I (P00582 324-928): as above
Source text: The 30-nt DNA products made from the polymerization using TTP and 2-Se-TTP refer to full-length product in FIGS. 2B and 2C, respectively. […] Results of thermal dynamic calculation (FIG. 18) are consistent with the denatured PAGE. The initial reaction rate ratio (TTP vs 2-Se-TTP) was around 1.24.

[4] = PCR of two target fragments with added 2-Se-TTP (agarose gel); conditions: target fragments 268bp, 405bp; 2-Se-TTP additionally added
Source text: No bands were found in two blank groups. Thus, incorporation of 2-Se-TTP can effectively reduce the non-specific bands in PCR.

[5] = plasmid and total cDNA templates

Chain of Taq DNA polymerase (P19821 whole entry): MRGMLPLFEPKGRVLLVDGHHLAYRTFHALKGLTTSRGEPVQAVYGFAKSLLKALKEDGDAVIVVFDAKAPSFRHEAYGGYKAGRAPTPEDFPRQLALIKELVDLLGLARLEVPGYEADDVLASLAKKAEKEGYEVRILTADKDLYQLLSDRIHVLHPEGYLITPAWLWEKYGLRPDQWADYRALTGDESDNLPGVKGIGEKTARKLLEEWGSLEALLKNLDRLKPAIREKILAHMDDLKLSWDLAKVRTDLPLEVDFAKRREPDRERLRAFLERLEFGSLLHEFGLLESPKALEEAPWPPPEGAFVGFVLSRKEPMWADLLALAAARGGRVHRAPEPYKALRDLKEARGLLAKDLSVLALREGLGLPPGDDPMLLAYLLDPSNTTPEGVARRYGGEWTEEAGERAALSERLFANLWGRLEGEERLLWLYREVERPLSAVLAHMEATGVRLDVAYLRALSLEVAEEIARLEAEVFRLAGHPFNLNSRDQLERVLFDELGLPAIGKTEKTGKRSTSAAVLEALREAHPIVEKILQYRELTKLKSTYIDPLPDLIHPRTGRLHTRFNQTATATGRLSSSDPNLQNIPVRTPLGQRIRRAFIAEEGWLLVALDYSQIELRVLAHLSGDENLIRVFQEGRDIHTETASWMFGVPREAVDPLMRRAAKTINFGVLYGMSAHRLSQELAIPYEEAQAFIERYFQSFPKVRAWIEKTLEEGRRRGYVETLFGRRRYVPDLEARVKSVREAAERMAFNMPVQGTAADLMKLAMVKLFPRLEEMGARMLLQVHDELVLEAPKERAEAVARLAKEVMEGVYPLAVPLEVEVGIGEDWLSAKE

## Nc1nc2c(ncn2C2CC(O)C(COP(O)(=[Se])OP(=O)(O)OP(=O)(O)O)O2)c(=O)[nH]1 (centres unmarked) [dGTPαSe I]
[1]; [5]
  suppression of nonspecific product in PCR: suppressed nonspecific product nearly completely

## Nc1ccn([C@H]2C[C@H](O)[C@@H](COP(O)(=S)OP(=O)(O)OP(=O)(O)O)O2)c(=O)n1 (some centres unmarked) [dCTPαS I]
[1]; [5]
  suppression of nonspecific product in PCR: suppressed nonspecific product nearly completely

## Nc1ccn([C@H]2C[C@H](O)[C@@H](COP(O)(=S)OP(=O)(O)OP(=O)(O)O)O2)c(=O)n1 (some centres unmarked) [S-dCTP]
[1]; 5 primer pairs, plasmid, total human cDNA and human genome templates
  suppression of nonspecific product in PCR: nearly completely suppressed

## Cc1cn([C@H]2C[C@H](O)[C@@H](COP(=O)(O)OP(=O)(O)OP(=O)(O)O)O2)c(=O)[nH]c1=O [TTP, reference compound]
[2]
  misincorporation in place of dCTP (full-length product): incorporated into the DNA primer sequence in a significant amount

## Cc1cn([C@H]2C[C@H](O)[C@@H](COP(=O)(O)OP(=O)(O)OP(=O)(O)O)O2)c(=[Se])[nH]c1=O [Compound 2-Se-TTP, 2-Se-dTTP]
[3]; Klenow fragment
  initial reaction rate ratio (TTP vs 2-Se-TTP): around 1.24
[3]; compared with TTP
  recognition by the Klenow fragment: relatively well recognized
[2]
  misincorporation in place of dCTP (full-length product): little to no full-length product
[4]
  bands in PCR (nonspecific amplification): clean and specific bands
